Assay: xn = mol fraction of the nth substance listed
Conditions: 313.15 K, Liquid, Vibrating tube method

C=C(C)C(=O)OCCN(C)C [2-(dimethylamino)ethyl methylpropenoate] + CCO
mass density [kg/m3]
Conditions	10000 kPa	15000 kPa	20000 kPa	25000 kPa	30000 kPa	35000 kPa
x1 = 0.0301	794.86	799.04	802.99	806.8	810.55	814.3
x1 = 0.0604	806.49	810.66	814.64	818.45	822.15	825.75
x1 = 0.1009	820.14	824.2	828.09	831.85	835.51	839.13
x1 = 0.2013	846.98	850.95	854.76	858.45	862.02	865.49
x1 = 0.302	866.49	870.43	874.22	877.88	881.45	884.95
x1 = 0.401	880.69	884.61	888.4	892.06	895.62	899.08
x1 = 0.4507	886.65	890.55	894.31	897.94	901.47	904.89
x1 = 0.4984	891.71	895.63	899.4	903.03	906.52	909.87
x1 = 0.553	896.81	900.7	904.45	908.07	911.57	914.96
x1 = 0.6053	901.15	905.03	908.77	912.39	915.89	919.29
x1 = 0.7041	907.89	911.79	915.55	919.19	922.7	926.09
x1 = 0.8027	913.65	917.54	921.29	924.91	928.37	931.68
x1 = 0.9016	918.27	922.15	925.92	929.56	933.08	936.46
x1 = 0.9342	919.6	923.48	927.25	930.89	934.42	937.83
x1 = 0.9607	920.71	924.61	928.4	932.04	935.54	938.88

From the NIST ThermoML archive (doi:10.1021/acs.jced.8b00975)
